From patent US20030026786A1, “CHONDROGENIC DIFFERENTIATION OF HUMAN MESENCHYMAL STEM CELLS” (priority 1999, published 2003)
Entries after “also recorded” stand apart in the source; their conditions may differ.

Tests used:
hMSCs in pellet culture = assay: Induction of hypertrophy in hMSC pellet culture by sequential treatment with two media; format: cell-based, human; conditions: for inducing hypertrophy: other preliminary experiments
[1] = system: human mesenchymal stem cells (hMSCs); assay: hMSC pellet culture in chondrogenic medium with low or high sugar concentration (pellet size, type II collagen immunostaining, toluidine blue); format: cell-based; conditions: low-glucose medium supplemented with 3.5 g/l fructose; compared with high-glucose medium (4.5 g/l glucose)
Procedure: The hMSCs in pellet culture that are undergoing chondrogenic differentiation express the extracellular matrix proteoglycans mentioned above. […] In FIG. 1, the increase in the size of the cell pellet is evident when the medium contains “high glucose”. Changes in the size of hMSC pellets reflect the extent of synthesis of extracellular matrix components. Each pellet was formed by transferring an aliquot of 200,000 cells into ½ ml chondrogenic medium with 1 g/l (5.5 mM) glucose (left) or 4.5 g/l (25 mM) glucose ( right). The chondrogenic medium consisted of DMEM with the stated concentration of glucose and the following supplements: 100 nM dexamethasone, 10 ng/ml Transforming Growth Factor)β, 1 mM sodium pyruvate, 5 μg/ml ascorbic acid-2-phosphate, and 40 μg/ml proline. A 1:99 dilution of “ITS+” supplied 6.25 μg/ml bovine insulin, 6.25 μg/ml transferrin, […], 5.33 μg/ml linoleic acid, and 1.25 mg/ml bovine serum albumin. Final concentrations of 100 U/ml penicillin, 100 μg/ml streptomycin, and 250 ng/ml amphotericin B were supplied by a 1:99 dilution of a concentrated antibiotic solution. The cells and medium were placed into a 15 ml polypropylene conical-bottom centrifuge tube, and gently centrifuged (500× g for 5 min.), after which the tubes with loosened caps were placed in a humidified 5% CO2 incubator at 37 C. […]

[2] = system: Human bone marrow-derived mesenchymal stem cells; assay: Chondrogenic differentiation of MSC pellets with TGF-β1 or TGF-β3 (toluidine blue, collagen and COMP immunostaining); format: cell-based; conditions: 10 ng/ml
Procedure: Human bone marrow-derived mesenchymal stem cells were cultured under standard conditions in the presence of 10% FBS until confluent. The cells were trypsinized, washed twice with chondrogenic medium, and resuspended at a density of 200,000 cells/ml in 15 ml polypropylene tubes in chondrogenic medium containing either 10 ng/ml TGF-01, TGF-β3 or neither of these. […] Frozen sections (8 μn) were stained with Toluidine blue. They were also stained for the following using standard immunocytochemistry protocols: collagen type 11, collagen type 1, and cartilage oligomeric matrix protein (COMP).

[3] = no TGF-β3, 50 nM thyroxine, 20 mM β-glycerol phosphate, 10^−9 M dexamethasone, compared to standard chondrogenic medium for 28 days

**Q.** How did the inducing hypertrophy (hMSCs in pellet culture) turn out when `N[C@@H](Cc1cc(I)c(Oc2ccc(O)c(I)c2)c(I)c1)C(=O)O` [T3] was run?
**A.** The inducing hypertrophy was “effective”.

**Q.** Which “improvement to in vitro chondrogenic differentiation” value [1] does the source give for `O=C(CO)[C@@H](O)[C@H](O)[C@H](O)CO` [fructose] here?
**A.** Its value is “same improvement”.

**Q.** Which results are given for `N[C@@H](Cc1cc(I)c(Oc2cc(I)c(O)c(I)c2)c(I)c1)C(=O)O` [thyroxine]?
**A.** hypertrophy (hMSCs in pellet culture; no TGF-β3, 50 nM thyroxine combined with 20 mM β-glycerol phosphate and 10^−9 M dexamethasone, from day 14 to day 28): hypertrophic differentiation of hMSCs was the predominant pathway; also recorded: more prominent; deposition of type X collagen (antibody X53) (hMSCs in pellet culture; [3]): irregular but pronounced increase; staining for type II and type IX collagens (hMSCs in pellet culture; [3]): intense staining; inducing hypertrophy (hMSCs in pellet culture): effective; hypertrophic effect (hMSCs in pellet culture; withdrawing TGF-β3 and adding 50 nM thyroxine after two weeks of chondrogenic differentiation, two additional weeks of culture): pronounced hypertrophic effect

**Q.** For “TGF-β1: member of the transforming growth factor-β superfamily, known promoter of cartilage formation”, which “type II collagen expression” value ([2]; 14 days) is on record?
**A.** Its value is “localized expression of type II collagen”.

**Q.** And the “type II collagen staining” value ([2]; 21 days in culture)?
**A.** Its value is “staining throughout the pellet except for the perimeter”.

**Q.** What about the “type II collagen expression” value ([2]; after 8 days in pellet culture) of the same molecule?
**A.** The value was “no expression of type II collagen”.

B1: TGF-β3: transforming growth factor beta-3, chondroinductive agent (protein, UniProt P10600 301-412, looked up)
Transforming growth factor …: ALDTNYCFRNLEENCCVRPLYIDFRQDLGWKWVHEPKGYYANFCSGPCPYLRSADTTHSTVLGLYNTLNPEASASPCCVPQDLEPLTILYYVGRTPKVEQLSNMVVKSCKCS
**Q.** What does the source list for B1?
**A.** cell morphology (hypertrophic cells) ([2]; 14 days): A large proportion of the cells were hypertrophic; pellet size ([2]; 14 days): larger in size; type II collagen expression ([2]; 14 days): expression of type II collagen throughout, except for a central area; COMP staining ([2]; 21 days in culture): reduced pericellular staining and increased interterritorial staining; type II collagen staining ([2]; 21 days in culture): very strong staining; type II collagen expression ([2]; after 8 days in pellet culture): some cells-ex fessed type II collagen; effect on chondrogenic differentiation of human MSCs in vitro ([2]; up to 21 days): dramatic effect; also recorded: more pronounced
